Assay results published in ChEMBL document CHEMBL1833811, “Design, synthesis and structure-activity relationship of novel [3.3.1] bicyclic sulfonamide-pyrazoles as potent γ-secretase inhibitors” (Bioorg Med Chem Lett, 2011).

Columns and labels:
[1] = Ratio of drug uptake in brain to plasma of wild type FVB mouse; assay type: ADME; conditions: brain and plasma, read-out: BPR
[2] = Oral bioavailability in wild type FVB mouse; assay type: ADME, organism-based; conditions: in vivo

Structure (SMILES) | Kp [1] | bioavailability [2] [%]
Cc1noc(C2CC3Cc4[nH]ncc4C(C2)N3S(=O)(=O)c2ccc(Cl)cc2)n1 (single isomer, unassigned) | 0.08 | 
O=S(=O)(c1ccc(Cl)cc1)N1C2CCCC1c1cn[nH]c1C2 (single isomer, unassigned) |  | 2
O=S(=O)(c1ccc(C(F)(F)F)nc1)N1C2Cc3[nH]ncc3C1CC(c1ccc(F)cc1)C2 (single isomer, unassigned) | 0.3 | 
